Data on 17 compounds can be found in US8557805B2, “Fused ring compound and use thereof” (Takeda Pharmaceutical Company Limited, priority 2008, dated 2013).

The target of series [1] is T1, human liver GK (GST-hLGK1) (Homo sapiens, UniProt P35557).
T1 construct: with a BamHI site added to immediately before the initiation codon; made in house; host or cells: Escherichia coli BL21 (Stratagene), plasmid pGEX6P-2/hLGK1
T1 sequence (P35557 1-464 isoform P35557-3): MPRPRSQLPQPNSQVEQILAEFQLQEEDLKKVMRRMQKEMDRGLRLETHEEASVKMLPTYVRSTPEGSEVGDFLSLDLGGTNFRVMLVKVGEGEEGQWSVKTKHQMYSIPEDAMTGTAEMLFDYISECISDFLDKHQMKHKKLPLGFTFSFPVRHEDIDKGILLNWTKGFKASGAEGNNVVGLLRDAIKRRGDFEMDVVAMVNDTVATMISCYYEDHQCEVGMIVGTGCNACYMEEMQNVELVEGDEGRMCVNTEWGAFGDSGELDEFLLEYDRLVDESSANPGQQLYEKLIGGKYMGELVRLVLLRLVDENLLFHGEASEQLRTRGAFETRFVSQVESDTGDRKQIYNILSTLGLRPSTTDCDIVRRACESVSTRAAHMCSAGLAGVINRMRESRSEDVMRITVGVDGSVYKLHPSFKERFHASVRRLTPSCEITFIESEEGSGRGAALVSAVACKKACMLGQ
Nature of the series: Determination of GK activity value (Mant-ATP to Mant-ADP conversion, capillary electrophoresis). It is filed as biochemical. Conditions: reaction started with 25 mM D-glucose solution, 37° C., 60 min, concentration at midpoint between maximum activity value and control group activity value. As for the experimental part: Plasmid DNA to be used for the expression of a protein (GST-hLGK1) containing GST (Glutathione S-transferase) added to the amino terminal of human liver GK in Escherichia coli was prepared as follows.
First, PCR was performed using human liver cDNA (Marathon Ready cDNA, Clontech Laboratories, Inc.) as a template and two kinds of synthetic DNAs (5′-[…]-3′ (SEQ ID NO: 1) and 5′-[…]-3′ (SEQ ID NO: 2)), and the obtained DNA fragment was closed using a TOPO TA Cloning Kit (Invitrogen Corporation). PCR was performed using the obtained plasmid DNA as a template and a synthetic DNA (5′-[…] CAGAG-3′ (SEQ ID NO: 3)) with a BamHI site added to immediately before the initiation codon, and a synthetic DNA (5′-[…]-3′ (SEQ ID NO: 4)) with an EcoRI site added to immediately after the stop codon. The obtained DNA fragment was subcloned to pGEX6P-2 (Amersham Biosciences K.K.) cleaved with BamHI and EcoRI to give a plasmid (pGEX6P-2/hLGK1) for expression of human liver GK.
BL21 strain (Stratagene) transformed with pGEX6P-2/hLGK1 obtained in (1) was cultured with shaking at 37° C. for 14 hr in a 200 ml Erlenmeyer flask containing 50 ml of 100 μg/ml ampicillin-containing LB medium. The culture medium (25 ml) was diluted with 225 ml of 100 μg/ml ampicillin-containing LB medium, and further cultured with shaking at 37° C. for 1 hr in a 1 L Erlenmeyer flask. After culture, the Erlenmeyer flask was cooled on ice, 125 μL of 100 mM isopropyl-thio-β-D-galactopyranoside (IPTG) was added (final concentration 50 μM), and cultured at 17° C. for 20 hr. The culture medium was centrifuged, and the obtained fungus was disrupted by ultrasonication. The object protein (GST-hLGK1) was purified from the supernatant using Glutathione Sepharose 4B (Amersham Biosciences K.K.).
A solution (5 μL) of test compound in 50% dimethyl sulfoxide was added to each well of 384 well black plate (Nalge Nunc International K.K.). Then, a solution (35 μL) obtained by diluting GST-hLGK1 obtained in (2) with measurement buffer (containing 50 mM HEPES (pH 7.4), 200 mM KCl, 5 mM MgCl2, 2.5 mM DTT and 50 μM 2′-(or-3′)-O—(N-methylanthraniloyl)adenosine 5′-triphosphate (Mant-ATP) (Jena Bioscience GmbH)) to 6 μg/mL was added to each well.
Each well was stood at 37° C. for 10 min, and 25 mM D-glucose solution (10 μL) was added to start the reaction.
Each well after the reaction was stood at 37° C. for 60 min, and the reaction was quenched by adding 25 μL of a quenching solution (containing 200 mM HEPES (pH 7.4), 20 mM MgCl2, 200 mM EDTA, 0.03% Triton-X 100, 0.3% Coating 3 reagent (Caliper Life Sciences, Inc.)).
2′-(or -3′)-O—(N-methylanthraniloyl)adenosine 5′-triphosphate (Mant-ATP, substrate) and Mant-ADP (reaction resultant product) were separated from each well after the reaction by a microchip type capillary electrophoresis apparatus 250 HTS (Caliper Life Sciences, Inc.). The reaction rate [(reaction resultant product peak height)/(reaction resultant product peak height+substrate peak height)×100(%)] was calculated from the ratio of the substrate peak height and reaction resultant product peak height obtained by fluorescence detection (excitation wavelength 355 nm, measurement wavelength 460 nm) and used as the index of GK activity.
3.5 As a control group, the reaction rate was calculated in the same manner as above except that “solution in 50% dimethyl sulfoxide (without test compound)” was used instead of “solution of test compound in 50% dimethyl sulfoxide”.
A concentration dependency curve of the test compound was drawn with the percentage obtained by dividing the reaction rate of the well added with the test compound (test compound addition group) by the reaction rate of the control group was taken as the GK activity value of the test compound, and the concentration of the test compound at the midpoint between the maximum activity value of the test compound addition group and the control group activity value is shown as EC50 value.

Consider `CNC(=O)CC1CN=C(c2cc3cc(Oc4ccc(S(C)(=O)=O)nc4)cc(OC4CCOCC4)c3[nH]2)S1` (single isomer, unassigned) [Example 36, N-Methyl-2-{2-[5-{[6-(methylsulfonyl)pyridin-3-yl]oxy}-7-(tetrahydro-2H-pyran-4-yloxy)-1H-indol-2-yl]-4,5-dihydro-1,3-thiazol-5-yl}acetamide], for which the response in series [1] was half-maximal at 16 nM (EC50).
On to `CN(C)C(=O)CC1CN=C(c2cc3cc(Oc4ccc(S(C)(=O)=O)nc4)ccc3[nH]2)S1` (stereo not shown) [Example 55, N,N-Dimethyl-2-[2-(5-{[6-(methylsulfonyl)pyridin-3-yl]oxy}-1H-indol-2-yl)-4,5-dihydro-1,3-thiazol-5-yl]acetamide], for which the melting point fell in the range of 162 to 164 °C. Besides, in series [1], the EC50 came out at 180 nM.
In turn, `CCNC(=O)CC1CN=C(c2cc3cc(Oc4ccc(S(C)(=O)=O)nc4)cc(OC4CCOCC4)c3[nH]2)S1` (stereo not shown) [Example 42, N-Ethyl-2-{2-[5-{[6-(methylsulfonyl)pyridin-3-yl]oxy}-7-(tetrahydro-2H-pyran-4-yloxy)-1H-indol-2-yl]-4,5-dihydro-1,3-thiazol-5-yl}acetamide] gave a melting point of 197 to 198 °C. In addition, the EC50 in series [1] amounted to 21 nM.
Consider `COCc1ccc(Oc2cc(OC3CCOCC3)c3[nH]c(C4=NCC(CCO)S4)cc3c2)cn1` (stereo not shown) [Example 7, 2-{2-[5-{[6-(Methoxymethyl)pyridin-3-yl]oxy}-7-(tetrahydro-2H-pyran-4-yloxy)-1H-indol-2-yl]-4,5-dihydro-1,3-thiazol-5-yl}ethanol], for which a half-maximal response in series [1] (EC50) required 14 nM.
The compound `Cc1cc(Oc2ccc(S(C)(=O)=O)nc2)cc2cc(C3=NCC(CC(=O)N4CC[S+]([O-])CC4)S3)[nH]c12` (stereo not shown) [Example 81, 7-Methyl-5-{[6-(methylsulfonyl)pyridin-3-yl]oxy}-2-{5-[2-(1-oxidothiomorpholin-4-yl)-2-oxoethyl]-4,5-dihydro-1,3-thiazol-2-yl}-1H-indole] returned a melting point of 157 to 160 °C. Further, the concentration for a half-maximal effect (EC50) in series [1] came to 48 nM.
For `CCc1cc(Oc2ccc(S(C)(=O)=O)nc2)cc2cc(C3=NCC(CC(N)=O)S3)[nH]c12` (stereo not shown) [Example 61, 2-[2-(7-Ethyl-5-{[6-(methylsulfonyl)pyridin-3-yl]oxy}-1H-indol-2-yl)-4,5-dihydro-1,3-thiazol-5-yl]acetamide], in that order: 190 to 191 °C and 16 nM.
For the compound `Cc1cc(Oc2ccc(S(C)(=O)=O)nc2)cc2cc(C3=NCC(CC(N)=O)S3)[nH]c12` (stereo not shown) [Example 72, 2-[2-(7-Methyl-5-{[6-(methylsulfonyl)pyridin-3-yl]oxy}-1H-indol-2-yl)-4,5-dihydro-1,3-thiazol-5-yl]acetamide], the melting point was 202 to 203 °C. Moreover, the EC50 in series [1] worked out at 29 nM.
`CN(C)C(=O)CC1CN=C(c2cc3cc(Oc4ccc(S(C)(=O)=O)nc4)ccc3[nH]2)S1` (single isomer, unassigned) [Example 65, N,N-Dimethyl-2-[2-(5-{[6-(methylsulfonyl)pyridin-3-yl]oxy}-1H-indol-2-yl)-4,5-dihydro-1,3-thiazol-5-yl]acetamide] showed an EC50 in series [1] of 66 nM.
For `CNC(=O)CC1CN=C(c2cc3cc(Oc4ccc(S(C)(=O)=O)nc4)cc(C)c3[nH]2)S1` (stereo not shown) [Example 73, 2-[2-(7-Methyl-5-{[6-(methylsulfonyl)pyridin-3-yl]oxy}-1H-indol-2-yl)-4,5-dihydro-1,3-thiazol-5-yl]-N-methylacetamide], the melting point lay within 183 to 184 °C. This compound also gave an EC50 in series [1] of 33 nM.
For `CS(=O)(=O)c1ccc(Oc2ccc3[nH]c(C4=NCC(CC(=O)NCC(F)(F)F)S4)cc3c2)cn1` (stereo not shown) [Example 56, 2-[2-(5-{[6-(Methylsulfonyl)pyridin-3-yl]oxy}-1H-indol-2-yl)-4,5-dihydro-1,3-thiazol-5-yl]-N-(2,2,2-trifluoroethyl)acetamide], in that order: 234 to 235 °C and 73 nM.
For `COCCNC(=O)CC1CN=C(c2cc3cc(Oc4ccc(S(C)(=O)=O)nc4)ccc3[nH]2)S1` (stereo not shown) [Example 57, N-(2-Methoxyethyl)-2-[2-(5-{[6-(methylsulfonyl)pyridin-3-yl]oxy}-1H-indol-2-yl)-4,5-dihydro-1,3-thiazol-5-yl]acetamide], in that order: 155 to 156 °C and 160 nM.
Compound `COCCNC(=O)CC1CN=C(c2cc3cc(Oc4ccc(S(C)(=O)=O)nc4)ccc3[nH]2)S1` (single isomer, unassigned) [Example 67, N-(2-Methoxyethyl)-2-[2-(5-{[6-(methylsulfonyl)pyridin-3-yl]oxy}-1H-indol-2-yl)-4,5-dihydro-1,3-thiazol-5-yl]acetamide] yielded a half-maximal effective concentration (EC50) in series [1] of 89 nM.
Same read-out and setting: for `CS(=O)(=O)c1ccc(Oc2cc(OC3CCOCC3)c3[nH]c(C4=NCC(CC(N)=O)S4)cc3c2)cn1` (single isomer, unassigned) [Example 32, 2-{2-[5-{[6-(Methylsulfonyl)pyridin-3-yl]oxy}-7-(tetrahydro-2H-pyran-4-yloxy)-1H-indol-2-yl]-4,5-dihydro-1,3-thiazol-5-yl}acetamide] the value was 16 nM; for `CNC(=O)CC1CN=C(c2cc3cc(Oc4ccc(S(C)(=O)=O)nc4)cc(OC4CCOCC4)c3[nH]2)S1` (single isomer, unassigned) [Example 35, N-Methyl-2-{2-[5-{[6-(methylsulfonyl)pyridin-3-yl]oxy}-7-(tetrahydro-2H-pyran-4-yloxy)-1H-indol-2-yl]-4,5-dihydro-1,3-thiazol-5-yl}acetamide], 31 nM; for `COCCOCc1ccc(Oc2cc(OC3CCOCC3)c3[nH]c(C4=NCC(CCO)S4)cc3c2)cn1` (stereo not shown) [Example 20, 2-{2-[5-({6-[(2-Methoxyethoxy)methyl]pyridin-3-yl}oxy)-7-(tetrahydro-2H-pyran-4-yloxy)-1H-indol-2-yl]-4,5-dihydro-1,3-thiazol-5-yl}ethanol], 27 nM.
In the case of `CS(=O)(=O)c1ccc(Oc2cc(OC3CCOCC3)c3[nH]c(C4=NCC(CC(N)=O)S4)cc3c2)cn1` (single isomer, unassigned) [Example 33, 2-{2-[5-{[6-(Methylsulfonyl)pyridin-3-yl]oxy}-7-(tetrahydro-2H-pyran-4-yloxy)-1H-indol-2-yl]-4,5-dihydro-1,3-thiazol-5-yl}acetamide], the midpoint of the response in series [1], the EC50, lay at 26 nM.
On the same count and under the same terms, the figure for `CS(=O)(=O)Cc1ccc(Oc2cc(OC3CCOCC3)c3[nH]c(C4=NCC(CCO)S4)cc3c2)cn1` (stereo not shown) [Example 24, 2-{2-[5-({6-[(Methylsulfonyl)methyl]pyridin-3-yl}oxy)-7-(tetrahydro-2H-pyran-4-yloxy)-1H-indol-2-yl]-4,5-dihydro-1,3-thiazol-5-yl}ethanol] is 19 nM.

In general, EC50 refers to the concentration giving half of the maximal effect. A low value points to higher potency in that assay. One may read the melting point as the temperature of the solid-liquid transition.
